The target in assay [1] is B-Raf (V600E) (SEQ. ID NO: 4) kinase (Homo sapiens (Human), UniProt P15056, V600E). As to the kind of experiment: Biochemical Assay for B-Raf (V600E) (1). The note with it: Table J, BRAF V600E, assay version (1); read-out: BRAF VE (1) IC50. An outline of the steps:
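Serially diluted compounds tested against 0.03 nM enzyme with 30.1 nM MEK substrate and 1 mM ATP (Tris pH 7.5, 15 mM MgCl2), ATP use coupled to NADH loss via PK/LDH. A340 monitored continuously 6 h, 30 °C; IC50 fitted (four-parameter) from the 3–4 h rate versus no-compound and known-inhibitor controls.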

Assay [2] addresses B-Raf kinase (SEQ. ID NO: 2) (Homo sapiens (Human), UniProt P15056). As to the kind of experiment: Biochemical Assay for B-Raf (1). The note with it: Table J, assay version (1); read-out: BRAF (1) IC50. In outline: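 IC50 derived by four-parameter sigmoidal fit of percent inhibition, normalised to uninhibited and reference-inhibitor controls, using reaction rates over 4–5 h. Coupled spectrophotometric readout (NADH loss at 340 nm, 6 h, 30° C.); 1 mM ATP, 30.1 nM MEK, 0.13 nM B-Raf, pH 7.5 Tris buffer, 1% DMSO.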

In the next assay the test system is H2405 cells. As to the kind of experiment: H2405 Cell Proliferation Assay (1). It is filed as cell-based. The note with it: Homo sapiens, NCI-H2405. An outline of the steps:
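Viability was read by resazurin reduction (ex 540 nm, em 600 nm; 5-6 h with 40 μL of 440 μM stock) after 67-72 h compound exposure at 37 °C.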

The next assay concerns WM3928 cells. As to the kind of experiment: WM3928 Cell Proliferation Assay (1). It is filed as cell-based. An outline of the steps:
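IC50 was derived from resazurin fluorescence (ex 540, em 600 nm) after a 6–7 h dye incubation. Before that, cells had 67–72 h of compound exposure at 37 °C, 5% CO2.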

Sequence of B-Raf kinase (SEQ. ID NO: 2) (P15056 416-766): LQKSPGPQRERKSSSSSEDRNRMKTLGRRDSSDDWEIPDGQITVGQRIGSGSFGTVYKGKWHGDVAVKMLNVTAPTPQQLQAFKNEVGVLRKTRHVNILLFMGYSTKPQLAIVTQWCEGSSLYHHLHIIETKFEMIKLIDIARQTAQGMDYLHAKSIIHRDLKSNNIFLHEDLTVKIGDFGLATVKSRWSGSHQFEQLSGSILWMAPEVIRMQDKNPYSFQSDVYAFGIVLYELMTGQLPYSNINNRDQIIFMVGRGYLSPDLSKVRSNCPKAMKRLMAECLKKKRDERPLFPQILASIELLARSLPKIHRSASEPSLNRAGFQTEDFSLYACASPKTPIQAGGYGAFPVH
Sequence of B-Raf (V600E) (SEQ. ID NO: 4) kinase (P15056 416-766 V600E): as the sequence (P15056 416-766) above, with V185E counted along it

Consider `CCOc1cc(-c2cc(NC(=O)c3ccnc(C(F)(F)F)c3)ccc2C)cc(-c2ccnc(NC(=O)C3CC3)c2)n1` [Example 12], for which the half-inhibitory concentration (IC50) in assay [1] is at most 100 nM; in assay [2] it was at most 100 nM; with H2405 cells, 100 to 500 nM.

Take `Cc1ccc(NC(=O)c2ccnc(C(F)(F)F)c2)cc1-c1cc(-c2ccnc(NC(=O)C3CC3)c2)n(C)c(=O)c1` [Example 13]: the IC50 in assay [1] and in assay [2] was at most 100 nM each time.

Consider `CC(=O)Nc1cc(-c2cc(-c3cc(NC(=O)c4ccnc(C(F)(F)F)c4)ccc3C)cc(C3CC3)n2)ccn1` [Example 14], for which the IC50 in assay [1] and in assay [2] was at most 100 nM each time.

As to `CC(=O)Nc1cc(-c2cc(-c3cc(NC(=O)c4ccnc(C(F)(F)F)c4)ccc3C)cc(N3CCOCC3)n2)ccn1` [Example 15], the IC50 (in assay [1]; in assay [2]; in the assay with H2405 cells) was at most 100 nM in each case.

For the compound `Cc1ccc(NC(=O)c2ccnc(C(F)(F)F)c2)cc1-c1ccnc(-c2ccnc(NC(=O)CN(C)C)c2)c1` [Example 17], the IC50 in assay [1] and in assay [2] was at most 100 nM throughout.

As to `Cc1ccc(NC(=O)c2ccnc(C(F)(F)F)c2)cc1-c1ccnc(-c2ccnc3c2CC(=O)N3)c1` [Example 18], the IC50 in assay [1] and in assay [2] was at most 100 nM in each case.

Turning to `CC(=O)Nc1cc(-c2cc(-c3cc(NC(=O)c4ccnc(C(C)(C)C#N)c4)ccc3C)ccn2)ccn1` [Example 19], the half-maximal inhibitory concentration (IC50) (in assay [1]; in assay [2]; with H2405 cells) was at most 100 nM in each case.

As for `Cc1cc(-c2cc(NC(=O)c3ccnc(C(F)(F)F)c3)ccc2C)cc(-c2ccnc3c2CC(=O)N3)n1` [Example 20], the IC50 in assay [1] and in assay [2] was at most 100 nM each time.

On to `COC(C)(C)c1cc(C(=O)Nc2ccc(C)c(-c3ccnc(-c4ccnc(NC(=O)C5CC5)c4)n3)c2)ccn1` [Example 190], for which the 50% inhibitory concentration (IC50) (in assay [1]; in assay [2]; with WM3928 cells) was at most 100 nM throughout.

With `CNC(=O)c1cc(-c2nccc(-c3cc(NC(=O)c4ccnc(C(C)(C)C#N)c4)cnc3C)n2)ccn1` [Example 194], the values for the IC50 (in assay [1]; in assay [2]; in the assay on WM3928 cells) were at most 100 nM, 500 to 1000 nM and 100 to 500 nM, respectively.

Turning to `Cc1ccc(NC(=O)c2ccnc(C(C)(C)C#N)c2)cc1-c1cccc(-c2cc(NC(=O)C3(C)CC3)ncn2)c1` [Example 197], the IC50 in assay [1] is at most 100 nM; in assay [2] it was 500 to 1000 nM; in the assay on WM3928 cells it was at most 100 nM.

On to `Cc1ccc(NC(=O)c2ccnc(C(C)(C)C#N)c2)cc1-c1cccc(-c2cc(NC(=O)C3(F)CC3)ncn2)c1` [Example 200], for which the IC50 in assay [1] was at most 100 nM; in assay [2], 100 to 500 nM; in the assay on WM3928 cells, at most 100 nM.

Turning to `Cc1ccc(NC(=O)c2ccnc(C3(C#N)CC3)c2)cc1-c1cccc(-c2cc(NC(=O)C3CC3)ncn2)c1` [Example 203], the IC50 (in assay [1]; in assay [2]; in the assay with WM3928 cells) was at most 100 nM throughout.

In the case of `CNC(=O)c1cc(-c2cc(-c3cc(NC(=O)c4ccnc(C(C)(C)C#N)c4)ccc3F)ccn2)ccn1` [Example 205], the results for the 50% inhibitory concentration (IC50) (in assay [1]; in assay [2]; with WM3928 cells) were at most 100 nM, 100 to 500 nM and 100 to 500 nM, respectively.

With `Cc1ncc(NC(=O)c2ccnc(C(C)(C)C#N)c2)cc1-c1cccc(-c2cc(N)ncn2)c1` [Example 207], the concentration for half-maximal inhibition (IC50) in assay [1] is at most 100 nM; in assay [2], 100 to 500 nM; with H2405 cells, 1000 to 10000 nM.

On to `Cc1cc(-c2cc(NC(=O)C3CC3)ncn2)cc(-c2cc(NC(=O)c3ccnc(C(C)(C)C#N)c3)ccc2C)c1` [Example 212], for which the IC50 (in assay [1]; in assay [2]; in the assay with H2405 cells) was at most 100 nM each time.

For `Cc1ncc(NC(=O)c2ccnc(C(C)(C)C#N)c2)cc1-c1cccc(-c2cc(NC(=O)C(C)(C)C)ncn2)c1` [Example 213], the IC50 in assay [1] is at most 100 nM; in assay [2], 1000 to 10000 nM; in the assay on WM3928 cells, 100 to 500 nM.

For the compound `CNC(=O)c1cc(-c2cc(-c3cc(NC(=O)c4cnnc(C5CC5)c4)ccc3C)ccn2)ccn1` [Example 215], the half-inhibitory concentration (IC50) in assay [1] was at most 100 nM; in assay [2] it was at most 100 nM; with WM3928 cells it was 500 to 1000 nM.

In the case of `Cc1ccc(NC(=O)c2ccnc(C(C)(C)C#N)c2)cc1-c1cc(-c2cc(NC(=O)C3CC3)ncn2)cc(C2CC2)c1` [Example 216], the IC50 is at most 100 nM in assay [1], 100 to 500 nM in assay [2] and at most 100 nM with WM3928 cells.

Consider `Cc1ncc(NC(=O)c2ccnc(C(C)(C)C#N)c2)cc1-c1ccnc(-c2ccnc(NC(=O)C(C)(C)C#N)c2)c1` [Example 219], for which the 50% inhibitory concentration (IC50) in assay [1] was at most 100 nM; in assay [2] it was 100 to 500 nM; in the assay with WM3928 cells it was 100 to 500 nM.

In the case of `Cc1ccc(NC(=O)c2ccnc(C3(C#N)CC3)c2)cc1-c1cccc(-c2cc(NC(=O)C3CC3)ncn2)n1` [Example 220], the IC50 was at most 100 nM in assay [1], 100 to 500 nM in assay [2] and 1000 to 10000 nM in the assay with WM3928 cells.

As for `Cc1ncc(NC(=O)c2ccnc(C(C)(C)C#N)c2)cc1-c1cccc(-c2cc(NC(=O)C3CC3)ncn2)n1` [Example 226], the IC50 lay within 100 to 500 nM in assay [1], 1000 to 10000 nM in assay [2] and 1000 to 10000 nM in the assay with WM3928 cells.

Consider `Cc1ccc(NC(=O)c2ccnc(C(C)(C)C#N)c2)cc1-c1cccc(-c2cc(NC(=O)C3CC3)ncn2)n1` [Example 233], for which the IC50 was at most 100 nM in assay [1], 100 to 500 nM in assay [2] and 1000 to 10000 nM with WM3928 cells.

On to `COC(C)(C)C(=O)Nc1cc(-c2cc(-c3cc(NC(=O)c4ccnc(C(C)(C)C#N)c4)ccc3C)ccn2)ccn1` [Example 237], for which the IC50 in assay [1] is at most 100 nM; in assay [2], 100 to 500 nM; in the assay on H2405 cells, 500 to 1000 nM.

Take `CC(C)(C#N)c1cc(C(=O)Nc2ccc(C#N)c(-c3cccc(-c4cc(NC(=O)C5CC5)ncn4)c3)c2)ccn1` [Example 240]: the IC50 in assay [1] was at most 100 nM; in assay [2], 100 to 500 nM; in the assay with H2405 cells, 100 to 500 nM.

In the case of `CNC(=O)c1cc(-c2ccnc(-c3cc(NC(=O)c4ccnc(C(C)(C)F)c4)ccc3C)n2)ccn1` [Example 246], the values for the IC50 (in assay [1]; in assay [2]; with H2405 cells) were at most 100 nM, 100 to 500 nM and 100 to 500 nM, respectively.

On to `CNC(=O)c1cc(-c2cc(-c3cc(NC(=O)c4ccnc(C(C)(C)C#N)c4)ccc3C#N)ccn2)ccn1` [Example 247], for which the IC50 in assay [1] was at most 100 nM; in assay [2], 1000 to 10000 nM; in the assay with H2405 cells it was 100 to 500 nM.

For `Cc1cc(F)c(NC(=O)c2cnnc(C3CC3)c2)cc1-c1nccc(-c2ccnc(NC(=O)C3CC3)c2)n1` [Example 252], the IC50 was at most 100 nM in assay [1], at most 100 nM in assay [2] and 500 to 1000 nM in the assay on WM3928 cells.

For `Cc1ccc(NC(=O)c2ccnc(C(C)(C)C#N)c2)cc1-c1ccnc(-c2ccnc(NC(=O)C3CC3)c2)n1` [Example 257], the half-maximal inhibitory concentration (IC50) (in assay [1]; in assay [2]; in the assay with WM3928 cells) was at most 100 nM each time.

On to `Cc1cc(F)c(NC(=O)c2ccnc(C3(C#N)CC3)c2)cc1-c1ccnc(-c2ccnc(NC(=O)C3CC3)c2)n1` [Example 262], for which the IC50 (in assay [1]; in assay [2]; in the assay with WM3928 cells) was at most 100 nM throughout.

As for `Cc1cc(F)c(NC(=O)c2cnnc(C3CC3)c2)cc1-c1ccnc(-c2ccnc(NC(=O)C3CC3)c2)n1` [Example 263], the figures for the IC50 (in assay [1]; in assay [2]; in the assay on WM3928 cells) were at most 100 nM, at most 100 nM and 500 to 1000 nM, respectively.
